# Tested on: carrageenin-induced inflammatory nociception in the hind paw
# Experiment: Inflammatory nociception induced by carrageenin (von Frey filament)
# Type: in vivo
# Settings: mice, carrageenin 300 μg per paw intraplantar; alpha-humulene 50 mg/kg orally or paracetamol 600 mg/kg orally, 1 h before; evaluated after 3, 4 and 6 hours
# Protocol: The evaluation methodology used in this test is described by Vaz et al. in J. Pharmacol. Exp. Ther. 278:304-312, 1996. Male mice (25-35 g) were systemically (orally) treated with alpha-humulene, 50 mg/kg, administered 1 hour before the experiment. Animals treated with 0.9% saline solution (0.1 ml/10 g) were used as the control. Another group of animals was treated with paracetamol (600 mg/kg, orally, administered 1 h before the treatment), that was used as positive control. For the induction of inflammatory pain, the animals received an intraplantar injection of 0.05 ml of carrageenin (300 μg per paw) at the plantar surface of the right hind paw. […] The nociception was evaluated with a Von Frey filament (0.4 g) after 3, 4 and 6 hours. […] The filament was applied to the right hind paw, complying with the criteria of (1) the application was perpendicular to the plantar surface, with enough pressure to cause the filament to bend, thus obtaining total pressure; (2) the animals were evaluated when the four paws were touching the screen; (3) the paw withdrawal response was considered when the animal removed the paw entirely from the support screen; (4) each animal was stimulated 10 consecutive times, each stimulation lasting 1 second; (5) each paw withdrawal event was considered as 10% of the response, with 10 withdrawal events corresponding to 100% response. […]
smiles,measurement,value
"CC(=O)Nc1ccc(O)cc1 [paracetamol, reference compound]",inflammatory nociception (paw withdrawal response to 0.4 g von Frey filament),reduced the inflammatory nociception

# Reference: US20080280996A1, “Use of Carophyllenes in the Manufacture of Medicaments and Treatment of Bodily Conditions of Inflammation and Inflammatory Pain” (priority 2004, published 2008)
